# Like-named read-outs stand apart in the source and are kept apart here.
# Experiments:
# [1] = test system: S. intermedius Animal (1051997); experiment: MIC determination, S. intermedius animal (1051997); type: cell-based; conditions: Staphylococcus intermedius; Gram-positive; Mueller-Hinton medium, 24 h at 37° C.
# How it was run: (§1)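 Broth microdilution in Mueller-Hinton medium, inoculum at OD 0.01, compounds (5 mg/mL stock in DMSO/methanol 50/50) serially diluted twofold. Plates incubated 24 h at 37° C. under humid atmosphere, read at OD 620 nm for MIC; duplicates.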
# E. coli Animal (1956) = experiment: MIC determination, E. coli animal (1956); type: cell-based; conditions: Escherichia coli; Gram-negative; Mueller-Hinton medium, 24 h at 37° C.
# How it was run: as §1
# CHO-K1 cells = experiment: WST1 cytotoxicity test on CHO-K1 cells; type: cell-based, Chinese hamster; conditions: Cricetulus griseus
# How it was run: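 CHO-K1 cells pre-grown 24 h, then exposed to increasing compound concentrations in duplicate for 24 h at 37° C, 5% CO2. Viability read after 20 min with 10% WST-1 in PBS at 450 nm; IC50 from nonlinear regression as concentration cutting viability 50%.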
# P. aeruginosa (1051575) = experiment: Potentiation of ampicillin activity (combination MIC); type: cell-based, Pseudomonas aeruginosa; conditions: ampicillin 4 μg/mL; concentration of compound required to restore antibiotic activity
# Description: This method requires the use of a 96-well plate: 100 μL of a liquid culture medium are placed in each well and then seeded with the microbial suspension prepared previously. The required volume to be seeded is calculated for an OD of 0.01, which corresponds to about 5×10^6 bacteria in each well. In this plate, the first line corresponds to a negative control (200 μL of sterile culture medium in each well), the second line corresponds to a positive control (100 μL of sterile culture medium+100 μL of the bacterial suspension), and the third line contains 192 μL of culture medium; 8 μL of compound of formula (I) to be tested are placed in each well. Thereafter, a cascade dilution is performed from this line. […] 92 μL of bacterial suspension are then added to lines 3 to 8. The results are read (the determination of the MIC (2 μg/mL of doxycycline) in the presence of X g/mL of compound of formula (I)) after 24 hours of incubation at 37° C. under a humid atmosphere. After 24 hours of incubation at 37° C., 40 μL of nitro tetrazolium iodide are added to each well to reveal the presence of live bacteria by staining the medium pink.
# The procedure is identical to that indicated in Example 5 above. […]
# The results are given in table V. They indicate the concentration of compound of formula (I) required to be able to restore the activity of the antibiotic under consideration.
# [2] = CHO-K1, 24 h, read-out: IC50 (μg/mL) CHO
# [3] = CHO-K1, read-out: IC50 (μg/mL) CHO
Compound,MIC [1] [µg/mL],MIC (E. coli Animal (1956)) [µg/mL],IC50 (CHO-K1 cells; [2]) [µg/mL],IC50 (CHO-K1 cells; [3]) [µg/mL],MIC P. aeruginosa (1051575) compound + ampicillin (P. aeruginosa (1051575)) [µg/mL]
"CC(C)NC(=O)CC[C@@H](C)[C@H]1CCC2C3C(CC[C@@]21C)[C@@]1(C)CC[C@H](NCCCNCCCCNCCCN)CC1C[C@@H]3O (stereo partly drawn) [Compound (35), 3β-spermino-N-isopropylursodeoxycholamide]",8,64,55,55,64
"CC(C)NC(=O)CC[C@@H](C)[C@H]1CCC2C3C(CC[C@@]21C)[C@@]1(C)CC[C@H](NCCCN(C)CCCN)CC1C[C@H]3O (stereo partly drawn) [(27), 3β-(bis(3-aminopropyl)methylamine)-N-isopropylchenodeoxycholamide]",4,32,100,100,64
"CC(C)NC(=O)CC[C@@H](C)[C@H]1CCC2C3C(CC[C@@]21C)[C@@]1(C)CC[C@H](NCCCNCCCNCCCN)CC1C[C@H]3O (stereo partly drawn) [(7), 3β-norspermino-N-isopropylchenodeoxycholamide]",1,8,55,–,15
"CC(C)NC(=O)CC[C@@H](C)[C@H]1CCC2C3C(CC[C@@]21C)[C@@]1(C)CC[C@H](NCCCNCCCN)CC1C[C@@H]3O (stereo partly drawn) [(15), 3β-norspermidino-N-isopropylursodeoxycholamide]",7,112,140,85,110
"CC(C)NC(=O)CC[C@@H](C)[C@H]1CCC2C3C(CC[C@@]21C)[C@@]1(C)CC[C@H](NCCCNCCCN)CC1C[C@H]3O (stereo partly drawn) [(8), 3β-norspermidino-N-isopropylchenodeoxycholamide]",1,14,50,50,27
"CC(C)NC(=O)CC[C@@H](C)[C@H]1CCC2C3CCC4C[C@@H](NCCCNCCCN)CC[C@]4(C)C3C[C@H](O)[C@@]21C (stereo partly drawn) [Compound (2), 3β-norspermidino-N-isopropyldeoxycholamide]",1,14,35,–,28
CC(C)NC(=O)CC[C@@H](C)[C@H]1CCC2C3CCC4C[C@@H](NCCCN(C)CCCN)CC[C@]4(C)C3C[C@H](O)[C@@]21C (stereo partly shown) [(25)],2,14,48,–,56
"CC(C)NC(=O)CC[C@@H](C)[C@H]1CCC2C3C(C[C@H](O)[C@@]21C)[C@@]1(C)CC[C@H](NCCCNCCCN)CC1C[C@H]3O (stereo partly drawn) [(5), 3β-norspermidino-N-isopropylcholamide]",4,32,70,70,64
